Results published in publication PMC7111280 (European Journal of Medicinal Chemistry, 2018).

Legend:
Hel cells = settings: Table 5, HSV/vaccinia assays, Hel cell morphology
HSV-1 (TK−) KOS ACVr = test: microbe, parasite or virus in culture; type: cell-based, herpes simplex virus type 1; settings: Human alphaherpesvirus 1, HEL, read-out: HSV-1 (TK−) KOS ACVr EC50
vaccinia virus = test: microbe, parasite or virus in culture; type: cell-based; settings: Orthopoxvirus vaccinia, HEL, read-out: vaccinia virus EC50
L1210 = settings: read-out: L1210 IC50; proliferation, Coulter Counter cell count; cited from earlier work
HeLa = settings: read-out: HeLa IC50; proliferation, Coulter Counter cell count; cited from earlier work
CEM = settings: read-out: CEM IC50; proliferation, Coulter Counter cell count; cited from earlier work
HMVEC = test: Endothelial cell proliferation, Coulter counter; type: cell-based; settings: Homo sapiens, 96 h, read-out: HMVEC IC50
MDA-MB-231-LM2 cells = test: Metastatic breast cancer xenograft mouse model; type: in vivo, SCID mice
CMV (AD-169) = test: Antiviral cytopathicity assay in Hel cells; type: cell-based, human cytomegalovirus

SMILES: Nc1nc2c(ncn2COCCO)c(=O)[nH]1 [Acyclovir, reference compound]
- MCC (minimal cytotoxic concentration) (Hel cells): >250 µM

SMILES: Nc1ccn(C[C@@H](CO)OCP(=O)(O)O)c(=O)n1.O.O [Cidofovir]
- EC50 (HSV-1 (TK−) KOS ACVr): 2000 nM
- MCC (minimal cytotoxic concentration) (Hel cells): >250 µM
- EC50 (vaccinia virus): 22000 nM

SMILES: C#C[C@@]1(O)[C@@H](CO)O[C@@H](n2cnc3c(N)ncnc32)[C@@H]1O [Compound 5, 3′-C-ethynyladenosine]
- IC50 (L1210): 730 ± 140 nM
- IC50 (HeLa): 290 ± 110 nM
- EC50 (vaccinia virus): 350 ± 50 nM
- IC50 (CEM): 610 ± 80 nM

SMILES: C#C[C@@]1(O)[C@@H](CO)O[C@@H](n2cc(F)c3c(N)ncnc32)[C@@H]1O [Compound 31, 4-amino-5-fluoro-N7-(3′-C-ethynyl-β-D-ribofuranosyl)-pyrrolo[2,3-d]pyrimidine]
- IC50 (HMVEC): < 1.28 nM

SMILES: C#C[C@@]1(O)[C@@H](CO)O[C@@H](n2cc(Cl)c3c(N)ncnc32)[C@@H]1O [Compound 32, 4-amino-5-chloro-N7-(3′-C-ethynyl-β-D-ribofuranosyl)-pyrrolo[2,3-d]pyrimidine]
- IC50 (HMVEC): < 1.28 nM
- tumor growth (BLI radiance, caliper) (MDA-MB-231-LM2 cells; 0.3 mg/kg i.t., starting from day 18, after four i.t. injections): significantly retarded
- total metastasis burden in the lungs (BLI) (MDA-MB-231-LM2 cells; day 34 versus vehicle control group): significantly lower

SMILES: C#C[C@@]1(O)[C@@H](CO)O[C@@H](n2cc(I)c3c(N)ncnc32)[C@@H]1O [Compound 34, 4-amino-5-iodo-N7-(3′-C-ethynyl-β-D-ribofuranosyl)-pyrrolo[2,3-d]pyrimidine]
- IC50 (HMVEC): < 1.28 nM

SMILES: C#C[C@@]1(O)[C@@H](CO)O[C@@H](n2cc(Cl)c3c(Cl)ccnc32)[C@@H]1O [Compound 66, 3,4-dichloro-N1-(3′-C-ethynyl-β-D-ribofuranosyl)-pyrrolo[2,3-b]pyridine]
- selectivity index (CMV (AD-169); human cytomegalovirus (hCMV)): 10 fold
- MCC (minimal cytotoxic concentration) (Hel cells): ≥100 µM

SMILES: C#C[C@@]1(O)[C@@H](CO)O[C@@H](n2cc(Br)c3c(Cl)ccnc32)[C@@H]1O [Compound 67, 3-bromo-4-chloro-N1-(3′-C-ethynyl-β-D-ribofuranosyl)-pyrrolo[2,3-b]pyridine]
- MCC (minimal cytotoxic concentration) (Hel cells): >100 µM

SMILES: C#C[C@@]1(O)[C@@H](CO)O[C@@H](n2cc(I)c3c(Cl)ccnc32)[C@@H]1O [Compound 68, 3-iodo-4-chloro-N1-(3′-C-ethynyl-β-D-ribofuranosyl)-pyrrolo[2,3-b]pyridine]
- MCC (minimal cytotoxic concentration) (Hel cells): >100 µM

SMILES: C#C[C@@]1(O)[C@@H](CO)O[C@@H](n2ccc3c(Cl)ccnc32)[C@@H]1O [Compound 70, 4-chloro-N1-(3′-C-ethynyl-β-D-ribofuranosyl)-pyrrolo[2,3-b]pyridine]
- activity against hCMV (CMV (AD-169)): inactive
- MCC (minimal cytotoxic concentration) (Hel cells): >100 µM

SMILES: Nc1nc(O)c2ncn(COC(CO)CO)c2n1 [Ganciclovir, reference compound]
- MCC (minimal cytotoxic concentration) (Hel cells): >100 µM
